The values that follow come from patent publication US5087620A, “Controlled dermal penetration enhancement using imidazoles” (Bristol-Myers Squibb Co., priority 1990, dated 1992).

The nature of data set [1]: In vitro skin penetration study, excised human skin, Franz diffusion cells (Example 1A-1C). Type of data set: in vitro ADME.
Experimental: Normal excised human skin samples obtained from breast reduction were used. Appropriate size specimens were frozen on the microtome with carbon dioxide and sectioned to a layer around 200 micrometers thick and stored in normal saline at 5° C. The skin sections were mounted on 9 mm inside diameter flat-top Franz diffusion cells. The diffusional cross-sectional area of the skin was 0.636 cm^2. A 50 microliter sample of a test formulation was placed on the skin in the donor compartment and the receiver compartment was filled with about 5 ml of normal saline (with pH adjusted to 4 with citric acid) and was well stirred. Water at 37.4° C. was circulated throughout the water jacket of the diffusion cell. A 100 microliter sample was withdrawn from the receiver compartment at appropriate intervals and analyzed for drug content by HPLC. The receptor fluid was replenished with normal saline after each withdrawal. All the receptor fluid and replenished fluid were thoroughly degassed before use.
Data set [2] relates to volar forearms. The experiment in a line: Vasoconstriction (skin blanching) assay, double-blind within subject study (Example 2). Type of data set: in vivo, human. To be noted: inclusion of dermal penetration controlling amount of SNO3, PG and IPM. How it is done:
(§1) Equal amounts of each coded test medication (approximately 10 mg) were applied to 2cm^2 sites on the volar forearms and left in place, unoccluded, for 8 hours. Vasoconstriction was assessed by grading the degree of blanching on a 4-point scale (none, mild, moderate, marked) at each test site at 4, 8, 10, 12 and 24 hours after application. Statistical analysis of the area under the curve (AUC) was conducted by ranking the AUC scores within each subject and performing an analysis of variance on the ranks (Friedman Test).

Data set [3] has as its system volar forearms. The experiment in a line: Vasoconstriction assay of Examples 3, 4 and 5 versus DIPROSONE and KENALOG (Example 6). Type of data set: in vivo, human. The procedure: as §1
The test system of another data set is forearms of humans. As to conditions: general rule; depends on vehicle and concentration; cited from earlier work.

Turning to `CC1(C)O[C@@H]2C[C@H]3[C@@H]4CCC5=CC(=O)C=C[C@]5(C)[C@@]4(F)[C@@H](O)C[C@]3(C)[C@]2(C(=O)CO)O1` [TACA, triamcinolone acetonide], the “penetration through the entire skin thickness (extent)” value in data set [1] is “only a small amount”. Further, the “potency class of TACA with SNO3, PG and IPM” value was “high potency steroid” with volar forearms [2]; “high potency” in the data set with volar forearms [3] (inclusion of SNO3, PG and IPM). Moreover, in the data set with volar forearms [3] (with SNO3, PG and IPM), the “TACA concentration needed for high potency in comparison to Kenalog cream (0.1% TACA)” value is listed as “three fold lower”. The “topical potency class (vasoconstriction assay)” value (“topical potency class” below) in the data set on forearms of humans was “mid-potency”.
On to `C[C@H]1C[C@H]2[C@@H]3CCC4=CC(=O)C=C[C@]4(C)[C@@]3(F)[C@@H](O)C[C@]2(C)[C@@]1(O)C(=O)CO` [betamethasone], for which, in the data set on forearms of humans, the “topical potency class” value is “high potency”.
As for `C[C@H]1C[C@H]2[C@@H]3CCC4=CC(=O)C=C[C@]4(C)[C@@]3(F)[C@@H](O)C[C@]2(C)[C@@]1(O)C(=O)CCl` [clobetasol], in the data set on forearms of humans, the “topical potency class” value was “ultra high potency”.
In the case of `C[C@]12CCC(=O)C=C1CC[C@@H]1[C@@H]2[C@@H](O)C[C@@]2(C)[C@H]1CC[C@]2(O)C(=O)CO` [hydrocortisone], the “topical potency class” value in the data set on forearms of humans is listed as “low potency”.
As to `C[C@H]1C[C@@H]2[C@H]([C@@H](O)C[C@@]3(C)[C@H]2CC[C@]3(O)C(=O)CO)[C@@]2(C)C=CC(=O)C=C12` [methylprednisolone], in the data set with forearms of humans, the “topical potency class” value is “low potency”.
`C[C@]12C=CC(=O)C=C1CC[C@@H]1[C@@H]2[C@@H](O)C[C@@]2(C)[C@H]1CC[C@]2(O)C(=O)CO` [prednisolone]: in the data set with forearms of humans, the “topical potency class” value is “low potency”.
